Columns and labels:
ABHD12 [1] = target: T1, ABHD12 (Homo sapiens, UniProt Q8N2K0); test: Lyso-PS hydrolysis assay (substrate-based), ABHD12-overexpressing HEK293T membrane lysate; assay type: biochemical; conditions: 17:1 lyso-PS substrate; ABHD12-overexpressed HEK lysate; read-out: IC50 (Substrate-based assay_ABHD12-overexpressed HEK lysate)
T1 construct: expressed in transfected cells; host or cells: HEK293T
T1 sequence (Q8N2K0 1-398): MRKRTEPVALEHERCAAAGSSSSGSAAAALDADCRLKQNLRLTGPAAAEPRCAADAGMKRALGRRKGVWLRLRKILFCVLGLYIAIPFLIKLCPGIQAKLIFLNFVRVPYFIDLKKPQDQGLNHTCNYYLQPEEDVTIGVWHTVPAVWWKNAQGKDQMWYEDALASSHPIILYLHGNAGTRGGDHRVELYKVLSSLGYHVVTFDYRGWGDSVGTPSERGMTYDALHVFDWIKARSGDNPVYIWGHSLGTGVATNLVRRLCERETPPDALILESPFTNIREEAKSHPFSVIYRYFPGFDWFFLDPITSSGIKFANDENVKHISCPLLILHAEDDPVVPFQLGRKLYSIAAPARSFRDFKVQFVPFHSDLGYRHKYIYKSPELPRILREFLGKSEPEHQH
Method: Lyso-PS Hydrolysis Assay:
The lyso-PS lipase activity of ABHD12 was determined as previously described (Blankman, J. L., Long, J. Z., Trauger, S. A., Siuzdak, G. & Cravatt, B. F. ABHD12 controls brain lysophosphatidylserine pathways that are deregulated in a murine model of the neurodegenerative disease PHARC. Proc. Natl. Acad. Sci. U. S. A. 110, 1500-1505, doi:10.1073/pnas.1217121110 (2013)) with some minor modifications. The proteome concentrations were adjusted to 0.25 mg/mL (ABHD12-overexpressing HEK293T membrane) or 0.5 mg/mL (mouse brain membrane) in Dulbecco's phosphate-buffered saline (DPBS) (80 μL/reaction). 20 μL of 500 μM 17:1 lyso-PS in DPBS was added to each reaction (100 μM final concentration) and incubated at 37° C. After 30 min, the reaction was quenched with 400 μL of 2:1 CHCl3/MeOH (v/v) with 1 nmol 15:0 FFA as an internal standard. The mixture was vortexed and centrifuged at 1,400× g to separate the aqueous and organic phase. The organic phase was analyzed by LC-MS (1200 LC/MSD, Agilent Technologies). The separation of the analyte was achieved using a 50 mm×4.6 mm 5 μm Gemini C18 column (Phenomenex) coupled to a guard column (Gemini: C18: 4×3 mm). The LC solvents were as follows: buffer A, […] (95:5, v/v) with 0.1% NH4OH (v/v); and buffer B, iPrOH:MeOH:H2O (60:3 5:5, v/v/v) with 0.1% NH4OH (v/v). The LC method consisted of 0.1 mL/min 20% buffer B for 1.0 min, 0.4 ml/min isocratic mode of 100% buffer B over 7 min and equilibration with 0.5 mL/min 100% buffer A for 3 min. The MS analyses were performed using an electrospray ionization source (ESI) in negative ion mode to measure product formation. MS data were acquired in selected ion monitoring mode at m/z 267.20 for 17:1 FFA and m/z 241.20 for 15:0 FFA.

ABHD12 [2] = target: T2, ABHD12 (Mus musculus, UniProt Q99LR1); test: Gel-based competitive ABPP, JJH350 probe vs brain membrane proteome; assay type: biochemical; conditions: for inhibition at 10 µM: 10 μM compound, read-out: % Inhibition @ 10 μM (ABPP gel_JJH350 probe vs brain mem); for IC50: read-out: IC50 (ABPP gel_JJH350 probe vs brain mem)
T2 construct: from tissue; host or cells: brain membrane proteome
T2 sequence (Q99LR1 1-398): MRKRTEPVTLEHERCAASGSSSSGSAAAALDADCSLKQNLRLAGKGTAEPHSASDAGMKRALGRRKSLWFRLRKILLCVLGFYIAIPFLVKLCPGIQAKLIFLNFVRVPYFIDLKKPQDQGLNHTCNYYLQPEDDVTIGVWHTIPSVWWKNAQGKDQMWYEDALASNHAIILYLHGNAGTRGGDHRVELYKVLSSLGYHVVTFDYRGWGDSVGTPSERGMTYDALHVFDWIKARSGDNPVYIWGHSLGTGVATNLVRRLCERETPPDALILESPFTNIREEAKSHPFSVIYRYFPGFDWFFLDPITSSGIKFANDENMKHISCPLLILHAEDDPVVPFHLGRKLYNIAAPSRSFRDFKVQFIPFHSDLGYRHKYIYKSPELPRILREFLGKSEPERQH
Method in brief: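 Mouse membrane proteome (1 mg/mL) labeled 45 min at 37 °C with alkyne probe JJH350 (2 μM final) or FP-Rh (1 μM final). JJH350 targets were visualized after CuAAC with rhodamine-azide (1 h, room temperature), SDS-PAGE (10%) and in-gel fluorescence scanning, with band intensities quantified.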

Compound	IC50 (ABHD12 [1]) [µM]	inhibition at 10 µM (ABHD12 [2]) [%]	IC50 (ABHD12 [2]) [µM]
FC(F)(F)c1cnc(N2CCC(NC(=S)Nc3cccnc3)CC2)c(Cl)c1 [Example 1, 1-(1-(3-Chloro-5-(trifluoromethyl)pyridin-2-yl)piperidin-4-yl)-3-(pyridin-3-yl)thiourea]	1 to 25	≥ 75	1 to 25
FC(F)(F)Oc1ccc(Oc2ccnc(N3CCC(NC(=S)Nc4cccnc4)CC3)c2)cc1 [Example 2, 1-(Pyridin-3-yl)-3-(1-(4-(4-(trifluoromethoxy)phenoxy)pyridin-2-yl)piperidin-4-yl)thiourea]	0.1 to 1	≥ 75	0.1 to 1
FC(F)(F)c1ccc(Oc2ccnc(N3CCC(NC(=S)Nc4cccnc4)CC3)c2)cc1 [Example 51, 1-(Pyridin-3-yl)-3-(1-(4-(4-(trifluoromethyl)phenoxy)pyridin-2-yl)piperidin-4-yl)thiourea]	0.1 to 1	≥ 75	0.1 to 1
FC(F)(F)c1cc(N2CCC(NC(=S)Nc3cccnc3)CC2)ncc1Cl [Example 25, 1-(1-(5-Chloro-4-(trifluoromethyl)pyridin-2-yl)piperidin-4-yl)-3-(pyridin-3-yl)thiourea]	1 to 25	≥ 75	1 to 25

The remaining lines, values ahead:

IC50 (ABHD12 [1]) [µM]	inhibition at 10 µM (ABHD12 [2]) [%]	IC50 (ABHD12 [2]) [µM]	Compound
1 to 25	≥ 75	1 to 25	Fc1ccc(Oc2ccnc(N3CCC(NC(=S)Nc4cccnc4)CC3)c2)cc1 [Example 41, 1-(1-(4-(4-Fluorophenoxy)pyridin-2-yl)piperidin-4-yl)-3-(pyridin-3-yl)thiourea]
≤ 0.1		≤ 0.1	FC(F)(F)Oc1ccc(Oc2ccnc(N3CCC(NC(=S)Nc4cccnc4)CC3)c2Cl)cc1Cl [Example 65, 1-(1-(3-Chloro-4-(3-chloro-4-(trifluoromethoxy)phenoxy)pyridin-2-yl)piperidin-4-yl)-3-(pyridin-3-yl)thiourea]
